This note sets out measurements from patent publication US12606543B2, “Indole derivatives as serotonergic agents useful for the treatment of disorders related thereto” (priority 2023, dated 2026).

Structures are written as SMILES. Where two headings read alike, the source gives them in different places.

Holding throughout (assay type): cell-based
Assay [1] deals with human 5-hydroxytryptamine receptor 2A (5-HT2A) (Homo sapiens, UniProt P28223). The assay can be described thus: Human 5-HT2A functional FLIPR assay (agonist mode). On the set-up: expressed in transfected cells; host or cells: Flp-In-293 (HEK293). The conditions noted are these: for RFU@10 μM: normalized fluorescence reading (Fmax−Fmin) at 10 μM, curve fitting with activation (%). Here is the method: The potential excitatory effects of compounds targeting human 5-hydroxytryptamine receptor 2A (5-HT2A) under agonist mode was assessed.
human 5-hydroxytryptamine receptor 2A (5-HT2A), sequence (P28223 whole entry): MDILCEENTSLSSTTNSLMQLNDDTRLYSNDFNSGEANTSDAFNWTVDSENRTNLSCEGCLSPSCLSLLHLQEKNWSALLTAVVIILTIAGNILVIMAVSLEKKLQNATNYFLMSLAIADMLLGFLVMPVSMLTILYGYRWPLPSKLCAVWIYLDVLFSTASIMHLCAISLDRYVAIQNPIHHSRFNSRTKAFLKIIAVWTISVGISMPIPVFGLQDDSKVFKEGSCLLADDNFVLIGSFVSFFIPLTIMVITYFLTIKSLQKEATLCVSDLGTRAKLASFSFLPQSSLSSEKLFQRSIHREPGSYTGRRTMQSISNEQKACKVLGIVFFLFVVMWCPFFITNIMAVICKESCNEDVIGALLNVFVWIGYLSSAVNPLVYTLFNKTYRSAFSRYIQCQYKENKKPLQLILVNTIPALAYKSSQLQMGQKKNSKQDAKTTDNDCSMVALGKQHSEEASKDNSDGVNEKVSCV
HTR2A&Gα15-HEK293 cells were cultured in DMEM medium containing 10% dialyzed FBS and 1× penicillin-streptomycin, 100 μg/mL Hygromycin B and 300 μg/mL G418. The cells were passaged about three times a week, maintained between ˜30% to ˜90% confluence.
2. For induction, 1 μg/ml tetracycline (final concentration) was added to cell culture medium and incubated for 48 hours prior to seeding cells into plate at 37° C., 5% (v/v) CO2. The cell culture medium was removed from flask. Cells were washed with DP BS.
9. 30 μL/well cell suspensions added into a 384-well cell plate (The cell density was 20,000 cells/well).
10 μL of assay buffer (20 mM HEPES, in 1×HBSS, pH 7.4) was added to each well of the cell plate.
2× dye solution was prepared following the manual of the FLIPR® Calcium 6 Assay Kit: • i. The dye was diluted with assay buffer. • ii. Probenecid was added to the final concentration of 5 mM. • iii. Vortexed vigorously for 1-2 minutes.
4. 10 μL of 2× dye solution was added to each well of the cell plate
(§1) 6. The plate was incubated at 37° C. for 2 hours followed by an additional 15-minute incubation at 25° C.
1. Serotonin HCl was prepared to the concentration of 10 mM with DMSO.
2. The test compounds were prepared to the concentration of 10 mM with DMSO.
4. 3-folds serial dilutions were performed with DMSO.
5. 90 nL/well of serial diluted compounds was transferred from source plate to a 384-well compound plate by using an Echo.
6. 30 μL/well of assay buffer (20 mM HEPES in 1×HBSS, pH 7.4) was added to the compound plate.
2. 10 μL of 3× compounds transferred from the compound plate to the cell plate by FLIPR.
3. The plate was read for 160 sec with 1 sec interval and the data of agonist mode was obtained.
(§2) 1. The normalized fluorescence reading (RFU) was calculated as shown below, wherein Fmax and Fmin stand for maximum and minimum of calcium signal during defined time window:
2. EC50 by fitting RFU against log of compound concentrations with Hill equation was calculated using XLfit.
(§3) 2. 10 μL of assay buffer (20 mM HEPES, in 1×HBSS, pH 7.4) was added to each well of the cell plate.
3. 2× dye solution was prepared following the manual of the FLIPR® Calcium 6 Assay Kit: • i. The dye was diluted with assay buffer. • ii. Probenecid was added to the final concentration of 5 mM. • iii. Vortexed vigorously for 1-2 minutes.
1. The normalized fluorescence reading (RFU) was calculated as shown below, wherein Fmax and Fmin stand for maximum and minimum of calcium signal during defined time window: RFU=Fmax−Fmin

Assay [2] concerns the target T1, human 5-hydroxytryptamine receptor 1A (5-HT1A) (Homo sapiens, UniProt P08908).
T1 sequence (P08908 1-422): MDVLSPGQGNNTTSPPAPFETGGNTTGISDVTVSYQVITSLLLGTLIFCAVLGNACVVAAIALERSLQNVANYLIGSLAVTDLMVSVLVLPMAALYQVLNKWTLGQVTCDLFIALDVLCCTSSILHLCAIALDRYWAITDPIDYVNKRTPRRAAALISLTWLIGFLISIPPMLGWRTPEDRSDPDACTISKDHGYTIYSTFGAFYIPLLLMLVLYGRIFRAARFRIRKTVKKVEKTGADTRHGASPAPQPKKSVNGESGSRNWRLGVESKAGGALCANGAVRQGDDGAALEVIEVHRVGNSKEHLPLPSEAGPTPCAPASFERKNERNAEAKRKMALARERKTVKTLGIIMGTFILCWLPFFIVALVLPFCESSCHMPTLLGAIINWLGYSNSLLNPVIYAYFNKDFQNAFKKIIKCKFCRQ
The assay can be described thus: Human 5-HT1A functional FLIPR assay (agonist mode). On the set-up: expressed in transfected cells; host or cells: Flp-In CHO. The conditions noted are these: for RFU@10 μM: normalized fluorescence reading (Fmax−Fmin) at 10 μM, curve fitting with activation (%). On the procedure: The potential excitatory effects of compounds targeting on 5-hydroxytryptamine receptor 1A (5-HT1A) under agonist mode was assessed.
HTR1A&Gα15-CHO cells were cultured in DMEM/F12 medium containing 10% dialyzed FBS, 1× penicillin-streptomycin and 600 μg/mL Hygromycin B. The cells were passaged about three times a week, maintained between ˜30% to ˜90% confluence.
8. Cells were diluted to 4×10^5/mL with cell culture medium.
9. 30 μL/well cell suspensions were added into a 384-well cell plate (The cell density was 12,000 cells/well).
as §3
3. 2× dye solution was prepared following the manufacture's instruction of the FLIPR® Calcium 6 assay kit: • i. The dye was diluted with assay buffer. • ii. probenecid was added to the final concentration of 5 mM. • iii. Vortexed vigorously for 1-2 minutes, adjust pH to 7.4.
4. 10 μL of 2× dye solution was added to each well of the cell plate.
as §1
1. Serotonin was prepared to the concentration of 10 mM with DMSO, 3-folds serial dilutions were performed with DMSO.
2. Prepare the test compound to the concentration of 10 mM with DMSO, preform 3-folds serial dilutions with DMSO.
4. 90 nL/well of serial diluted compounds were transferred from source plate to a 384-well compound plate by using an Echo.
5. 30 μL/well of assay buffer was added to the compound plate.
2. 10 μL of 3× compounds were transferred from the compound plate to the cell plate by FLIPR.
3. The plate was read for 160 sec with 1 sec interval to obtain the data of agonist mode.
as §2
2. EC50 was calculated by fitting RFU against log of compound concentrations with Hill equation using XLfit.

For assay [3], the target named is T2, human 5-HT1A receptor (Homo sapiens, UniProt P08908).
T2 construct: expressed in transfected cells; host or cells: CHO-K1
T2 sequence (P08908 1-422): T1 sequence (P08908 1-422)
The assay can be described thus: Human 5-HT1A cAMP assay. The conditions noted are these: for Emax (% of serotonin): cAMP assay, CHO-K1 cells, relative to maximum response of serotonin. Here is the method: Compound potency (EC50) and efficacy (Max response) against the human 5-HT1A receptor in stably transfected CHO-K1 cells were determined in a GPCR cell-based CAMP assay.
Cells were seeded in a total volume of 20 μL into white walled, 384-well microplates and incubated at 37° C. overnight before analysis. Prior to testing, cell plating media was exchanged with 10 μL of Assay buffer (HBSS+10 mM HEPES). Briefly, intermediate dilution of sample stocks were performed to generate 4× sample in assay buffer. 5 μL of 4× samples+5 μL of 4× forskolin were added to cells and incubated at 37° C. for 30 minutes (mins). The final assay vehicle concentration was 1%.
Cells were seeded in a total volume of 20 μL into white walled, 384-well microplates and incubated at 37° C. overnight before analysis. Prior to testing, cell plating media was exchanged with 10 μL of Assay buffer (HBSS+10 mM HEPES). Briefly, intermediate dilution of sample stocks was performed to generate 4× samples in assay buffer. 5 μL of 4× samples+5 μL of 4× forskolin was added to cells and incubated at 37° C. for 30 mins. The final assay vehicle concentration was 1%.
Background: cAMP levels reflect the balance of adenylyl cyclase and phosphodiesterase activity.

Setting [4] is: cAMP assay with forskolin, stably transfected CHO-K1 cells, 30 min, read-out: EC50.

With `[2H]C([2H])(c1c[nH]c2ccc(OCCCCCN3C(=O)C4CCCCC4C3=O)cc12)[C@H]1CCCN1C([2H])([2H])[2H]` (mixture of isomers) [Rac (R) I-248], in assay [1], the EC50 (commonly the concentration at which the effect is half-maximal) stood at 54 nM. The “RFU@10 μM” value is on record as 8,240 RFU in assay [1] and 601 RFU in assay [2].

Regarding `[2H]C([2H])(c1c[nH]c2ccc(OCCCCCN3C(=O)[C@H]4CCCC[C@H]4C3=O)cc12)[C@H]1CCCN1C([2H])([2H])[2H]` [Cis (R) I-248, 2-(5-((3-(((R)-1-(Methyl-d3)pyrrolidin-2-yl)methyl-d2)-1H-indol-5-yl)oxy)pentyl)hexahydro-1H-isoindole-1,3(2H)-dione], the half-maximal effective concentration (EC50) in assay [3] (setting [4]) amounted to 52.7 nM. In assay [3], the “Emax (% of serotonin)” value was 96.76 % of serotonin.

Regarding `[2H]C([2H])(c1c[nH]c2ccc(OCCCCN3C(=O)c4ccccc4C3=O)cc12)[C@H]1CCCN1C([2H])([2H])[2H]` [(R) I-244, (R)-2-(4-((3-((1-(Methyl-d3)pyrrolidin-2-yl)methyl-d2)-1H-indol-5-yl)oxy)butyl)isoindoline-1,3-dione], the EC50 was found to be 50 nM in assay [1] and 6.3 nM in assay [3] (setting [4]). The “RFU@10 μM” value in assay [1] is reported as 7,945 RFU; in assay [2] it was 616 RFU. The “Emax (% of serotonin)” value in assay [3] is recorded as 99.01 % of serotonin.

As to `CSc1ccc2[nH]cc(C[C@H]3CCCN3C)c2c1` [(R) I-1, (R)-3-((1-Methylpyrrolidin-2-yl)methyl)-5-(methylthio)-1H-indole], in assay [1], the EC50 came to 47 nM and the “RFU@10 μM” value is given as 5,663 RFU. Also, in assay [3], the 50% effective concentration (EC50) is 11.1 nM and the “Emax (% of serotonin)” value is given as 99.41 % of serotonin. In assay [2], the midpoint of the response, the EC50, lay at 581 nM and the “RFU@10 μM” value is on record as 3,355 RFU.

Take `[2H]C([2H])(c1c[nH]c2ccc(OCCCCCN3C(=O)c4ccccc4C3=O)cc12)[C@H]1CCCN1C([2H])([2H])[2H]` [(R) I-245, (R)-2-(5-((3-((1-(Methyl-d3)pyrrolidin-2-yl)methyl-d2)-1H-indol-5-yl)oxy)pentyl)isoindoline-1,3-dione]: the results for the concentration giving a half-maximal response (EC50) in assay [1] and in assay [3] (setting [4]) were 120 nM and 19.5 nM, respectively. Besides, the “RFU@10 μM” value in assay [1] is recorded as 8,322 RFU; in assay [2], 899 RFU. Besides, the “Emax (% of serotonin)” value in assay [3] is 99.14 % of serotonin.

Turning to `CN(C)CCc1c[nH]c2ccccc12` [DMT], the EC50 in assay [1] (FLIPR calcium, agonist mode, HTR2A&Gα15-HEK293 cells, read-out: h5-HT2A, EC50) was 163 nM. The “RFU@10 μM” value in assay [1] is listed as 3,493 RFU; in assay [2], 204 RFU. Further, the “Emax (% of serotonin)” value in assay [3] is 87.1 % of serotonin.

For the molecule `COCCN1CCC[C@@H]1Cc1c[nH]c2ccc(OC)cc12` [(R) I-98, (R)-5-Methoxy-3-((1-(2-methoxyethyl)pyrrolidin-2-yl)methyl)-1H-indole], the EC50 in assay [1] was 13 nM; in assay [3] (setting [4]), 40.3 nM; in assay [2] it was 3170 nM. The “RFU@10 μM” value in assay [1] is reported as 8,298 RFU; in assay [2] it was 1,666 RFU. Also, the “Emax (% of serotonin)” value in assay [3] is 96.42 % of serotonin.
